In ChEMBL document CHEMBL3885881, “DrugMatrix”:

Tests used:
Rattus norvegicus [1] = species: Rattus norvegicus; type: toxicity, organism-based, Sprague-Dawley; settings: in vivo, po, 24 h, route oral GAVAGE, time 1 day, […]; for MEAN CORPUSCULAR HEMOGLOBIN CONCENTRATION / MEAN CORPUSCULAR VOLUME / ABSOLUTE BASOPHIL / ABSOLUTE EOSINOPHIL / ABSOLUTE LYMPHOCYTE / ABSOLUTE MONOCYTE / BASOPHIL / EOSINOPHIL / ERYTHROCYTE COUNT / HEMATOCRIT / HEMOGLOBIN / LEUKOCYTE COUNT / LYMPHOCYTE / MEAN CORPUSCULAR HEMOGLOBIN / MONOCYTE / NEUTROPHIL / PLATELET COUNT: tissue Blood; for ALANINE AMINOTRANSFERASE / ALBUMIN / ALKALINE PHOSPHATASE / ASPARTATE AMINOTRANSFERASE / BLOOD UREA NITROGEN / CARBON DIOXIDE / CHLORIDE / CHOLESTEROL / CREATINE PHOSPHOKINASE / CREATININE / GLUCOSE / LACTATE DEHYDROGENASE / LIPASE / PHOSPHORUS / POTASSIUM / SODIUM / TOTAL BILIRUBIN / TOTAL PROTEIN / URIC ACID: tissue Plasma
Description: DrugMatrix - Regimen: Single

Rattus norvegicus [2] = species: Rattus norvegicus; experiment: DrugMatrix - Regimen: Daily Repeat; type: toxicity, organism-based, Sprague-Dawley; set-up: regimen Daily Repeat, gender Male, age 6-8 weeks; settings: in vivo, po, 0 mg/kg, 72 h, route oral GAVAGE, dose level Control, time 3 day, […]
[3] = 0 mg/kg, vehicle control, dose level Control

## CC[C@H](C)C(=O)O[C@H]1C[C@H](O)C=C2C=C[C@H](C)[C@H](CC[C@@H](O)C[C@@H](O)CC(=O)O)[C@H]21 [PRAVASTATIN]
Rattus norvegicus [1]; 0 mg/kg, dose level Control
  MEAN CORPUSCULAR HEMOGLOBIN CONCENTRATION: 30.5 G/DL
  MEAN CORPUSCULAR VOLUME: 67.21 fL
Rattus norvegicus [1]; [3]
  ABSOLUTE BASOPHIL: 50 cells/µL
  ABSOLUTE EOSINOPHIL: 32.5 cells/µL
  ABSOLUTE LYMPHOCYTE: 7980 cells/µL
  ABSOLUTE MONOCYTE: 170 cells/µL
  BASOPHIL: 0.58%
  EOSINOPHIL: 0.34%
  ERYTHROCYTE COUNT: 6.56 x10E6/uL
  HEMATOCRIT: 44.14%
  HEMOGLOBIN: 13.45 G/DL
  LEUKOCYTE COUNT: 9.51 x10E3/uL
  LYMPHOCYTE: 83.6%
  MEAN CORPUSCULAR HEMOGLOBIN: 20.5 pg
  MONOCYTE: 1.86%
  NEUTROPHIL: 12.7%
  PLATELET COUNT: 1240.38 x10E3/uL
  ALANINE AMINOTRANSFERASE: 47.12 u/L
  ALBUMIN: 3.59 G/DL
  ALKALINE PHOSPHATASE: 461.38 u/L
  ASPARTATE AMINOTRANSFERASE: 62.25 u/L
  BLOOD UREA NITROGEN: 12.63 mg/dL
  CARBON DIOXIDE: 39.5 mmol/L
  CHLORIDE: 105.38 MEQ/L
  CHOLESTEROL: 74.25 mg/dL
  CREATINE PHOSPHOKINASE: 282.88 u/L
  CREATININE: 0.61 mg/dL
  GLUCOSE: 176.25 mg/dL
  LACTATE DEHYDROGENASE: 190.25 u/L
  LIPASE: 28 u/L
  PHOSPHORUS: 12.68 mg/dL
  POTASSIUM: 6.6 MEQ/L
  SODIUM: 151.13 MEQ/L
  TOTAL BILIRUBIN: 0.34 mg/dL
  TOTAL PROTEIN: 6.09 G/DL
  URIC ACID: 1.06 mg/dL
Rattus norvegicus [1]; 1200 mg/kg, dose level High
  ABSOLUTE BASOPHIL: 12.5 cells/µL
  ABSOLUTE EOSINOPHIL: 41.3 cells/µL
  ABSOLUTE LYMPHOCYTE: 7270 cells/µL
  ABSOLUTE MONOCYTE: 270 cells/µL
  BASOPHIL: 0.35%
  EOSINOPHIL: 0.46%
  ERYTHROCYTE COUNT: 6.38 x10E6/uL
  HEMATOCRIT: 42.34%
  HEMOGLOBIN: 12.95 G/DL
  LEUKOCYTE COUNT: 9.2 x10E3/uL
  LYMPHOCYTE: 78.89%
  MEAN CORPUSCULAR HEMOGLOBIN: 20.29 pg
  MEAN CORPUSCULAR HEMOGLOBIN CONCENTRATION: 30.55 G/DL
  MEAN CORPUSCULAR VOLUME: 66.41 fL
  MONOCYTE: 2.9%
  NEUTROPHIL: 16.21%
  PLATELET COUNT: 1234.38 x10E3/uL
  ALANINE AMINOTRANSFERASE: 73.25 u/L
  ALBUMIN: 3.64 G/DL
  ALKALINE PHOSPHATASE: 563.12 u/L
  ASPARTATE AMINOTRANSFERASE: 74.62 u/L
  BLOOD UREA NITROGEN: 12.25 mg/dL
  CARBON DIOXIDE: 36.62 mmol/L
  CHLORIDE: 108 MEQ/L
  CHOLESTEROL: 74.87 mg/dL
  CREATINE PHOSPHOKINASE: 344.5 u/L
  CREATININE: 0.67 mg/dL
  GLUCOSE: 193.13 mg/dL
  LACTATE DEHYDROGENASE: 126.88 u/L
  LIPASE: 34.88 u/L
  PHOSPHORUS: 12.5 mg/dL
  POTASSIUM: 6.55 MEQ/L
  SODIUM: 153.75 MEQ/L
  TOTAL BILIRUBIN: 0.27 mg/dL
  TOTAL PROTEIN: 6.12 G/DL
  URIC ACID: 1.09 mg/dL
Rattus norvegicus [2]; tissue Blood
  ABSOLUTE BASOPHIL: 0 CELLS/uL
  ABSOLUTE EOSINOPHIL: 14 CELLS/uL
  ABSOLUTE LYMPHOCYTE: 11144.67 CELLS/uL
  ABSOLUTE MONOCYTE: 22.5 CELLS/uL
  ABSOLUTE SEGMENTED NEUTROPHIL: 535.5 CELLS/uL
  BASOPHIL: 0%
  EOSINOPHIL: 0.17%
  ERYTHROCYTE COUNT: 5.08 x10E6/uL
  HEMATOCRIT: 32.32%
  HEMOGLOBIN: 12.87 G/DL
  LEUKOCYTE COUNT: 11.72 x10E3/uL
  LYMPHOCYTE: 94.67%
  MEAN CORPUSCULAR HEMOGLOBIN: 25.37 pg
  MEAN CORPUSCULAR HEMOGLOBIN CONCENTRATION: 39.85 G/DL
  MEAN CORPUSCULAR VOLUME: 63.58 fL
  MONOCYTE: 0.17%
  NEUTROPHIL: 5%
  NUCLEATED RED BLOOD CELLS: 0 /100WBC
  PLATELET COUNT: 1084 x10E3/uL
Rattus norvegicus [2]; tissue Plasma
  ALANINE AMINOTRANSFERASE: 67.5 u/L
  ALBUMIN: 4.02 G/DL
